Assays:
[1] = tested on: Pseudomonas aeruginosa; experiment: Agar plate disc-diffusion, antibacterial activity by inhibition zone; conditions: nutrient agar, 37° C., 48 hours, DMSO zone subtracted
[2] = tested on: Escherichia coli; experiment: as above; conditions: nutrient agar, 37° C., 48 hours, DMSO zone subtracted
[3] = tested on: Aspergillus flavus; experiment: Agar plate disc-diffusion, antifungal activity by inhibition zone; conditions: Sabouraud's dextrose agar, 37° C., 72 hours, DMSO zone subtracted
[4] = tested on: Chrysosporium keratinophilum; experiment: as above; conditions: Sabouraud's dextrose agar, 37° C., 72 hours, DMSO zone subtracted
[5] = tested on: Bacillus cereus; experiment: Agar plate disc-diffusion, antibacterial activity by inhibition zone; conditions: nutrient agar, 37° C., 48 hours, DMSO zone subtracted
[6] = tested on: Staphylococcus aureus; experiment: as above; conditions: nutrient agar, 37° C., 48 hours, DMSO zone subtracted
[7] = A = concentration of comp. = 10,000 μL
[8] = B = concentration of comp. = 30.000 μL
[9] = C = concentration of comp. = 50,000 μL

For N/C(=N\OC(=O)CSc1nnc(-c2ccccc2)o1)c1ccc2ccccc2c1 [Comp 3, N′-(2-(5-phenyl-1,3,4-oxadiazol-2-ylthio)acetoxy)-2-naphthimidamide], the “inhibition zone, Pseudomonas aeruginosa” value [1, 7] was 27 mm, the “inhibition zone, Pseudomonas aeruginosa” value [1, 8] was 34 mm and the “inhibition zone, Pseudomonas aeruginosa” value [1, 9] was 40 mm. For the same compound, the “inhibition zone, Escherichia coli” value [2, 7] was 31 mm, the “inhibition zone, Escherichia coli” value [2, 8] was 39 mm and the “inhibition zone, Escherichia coli” value [2, 9] was 48 mm. The “inhibition zone, Aspergillus flavus” value [3, 7] was 26 mm, the “inhibition zone, Aspergillus flavus” value [3, 8] was 29 mm and the “inhibition zone, Aspergillus flavus” value [3, 9] was 39 mm. The “inhibition zone, Chrysosporium keratinophilum” value [4, 7] was 31 mm, the “inhibition zone, Chrysosporium keratinophilum” value [4, 8] was 39 mm and the “inhibition zone, Chrysosporium keratinophilum” value [4, 9] was 45 mm. For the same compound, the “inhibition zone, Bacillus Cereus” value [5, 7] was 28 mm, the “inhibition zone, Bacillus Cereus” value [5, 8] was 32 mm and the “inhibition zone, Bacillus Cereus” value [5, 9] was 40 mm. For the same compound, the “inhibition zone, Staphylococcus aureus” value [6, 7] was 25 mm, the “inhibition zone, Staphylococcus aureus” value [6, 8] was 31 mm and the “inhibition zone, Staphylococcus aureus” value [6, 9] was 40 mm.

— patent publication US11958815B1, “N′-(2-(5-phenyl-1,3,4-oxadiazol-2-ylthio)acetoxy)-2-naphthimidamide as antimicrobial compound” (KING FAISAL UNIVERSITY, priority 2023, dated 2024)
